Assay results taken from ChEMBL document CHEMBL5346891, “Overview of the development of HBV small molecule inhibitors” (Eur J Med Chem, 2023).
One block for each compound: values may come before it.

Key:
Hepatitis B virus [1] = test: Antiviral activity against HBV infected in human HepG2.2.15 cells assessed as reduction in HBeAg at 100 ug/ml measured after 7 day by enzyme immunoassay relative to control; type: functional; details: HepG2.2.15, 168 h
Hepatitis B virus [2] = test: Antiviral activity against HBV infected in human HepG2.2.15 cells assessed as reduction in HBsAg measured after 7 day by enzyme immunoassay relative to control; type: functional, organism-based; details: HepG2.2.15, 168 h
Hepatitis B virus [3] = test: Antiviral activity against HBV infected in human HepG2.2.15 cells assessed as reduction in HBsAg at 100 ug/ml measured after 7 day by enzyme immunoassay relative to control; type: functional; details: HepG2.2.15, 168 h
Hepatitis B virus [4] = test: Antiviral activity against HBV stably transfected in human HepDES19 cells assessed as reduction in viral DNA measured after 7 days by q-PCR assay; type: functional, organism-based; details: HepDES19, 168 h
Hepatitis B virus [5] = test: Antiviral activity against HBV infected in human HepG2-NTCP12 cells assessed as reduction in viral DNA measured after 7 days by q-PCR assay; type: functional, organism-based; details: HepG2-NTCP12, 168 h
Hepatitis B virus [6] = test: Antiviral activity against HBV infected in human HepDES19 cells assessed as reduction in cccDNA accumulation by southern blot analysis; type: functional, organism-based
Hepatitis B virus [7] = test: Antiviral activity against HBV infected in human HepG2.2.15 cells; type: functional, organism-based
Hepatitis B virus [8] = test: Antiviral activity against drug-resistant HBV infected in human HepG2.2.15 cells; type: functional, organism-based
Hepatitis B virus [9] = test: Antiviral activity against HBV infected in human HepDES19 cells assessed as reduction in viral DNA replication measured after 72 hrs by q-PCR assay; type: functional, organism-based; details: HepDES19, 72 h
Hepatitis B virus [10] = test: Antiviral activity against HBV infected in human HepG2.2.15 cells assessed as reduction in HBeAg level measured after 144 hrs by ELISA; type: functional, organism-based; details: HepG2.2.15, 144 h
Hepatitis B virus [11] = test: Antiviral activity against HBV infected in human HepG2.2.15 cells assessed as reduction in HBsAg level measured after 144 hrs by ELISA; type: functional, organism-based; details: HepG2.2.15, 144 h
Hepatitis B virus [12] = test: Antiviral activity against HBV infected in human HepDES19 cells assessed as reduction in viral rcDNA level measured after 7 days by a branched chain DNA hybridization assay; type: functional, organism-based; details: HepDES19, 168 h
Hepatitis B virus [13] = test: Antiviral activity against HBV infected in human HePAD38 cells assessed as reduction in cccDNA level; type: functional, organism-based
Hepatitis B virus [14] = test: Antiviral activity against HBV infected in human HepG2 cells assessed as reduction in cccDNA transcription level; type: functional, organism-based
[15] = Modulation of capsid assembly in HBV genotype C assessed as inhibition of viral replication; type: functional, Hepatitis B virus
[16] = Modulation of capsid assembly in HBV genotype H assessed as inhibition of viral replication; type: functional, Hepatitis B virus
[17] = Modulation of capsid assembly in HBV genotype D assessed as inhibition of DNA replication; type: functional, Hepatitis B virus
[18] = Modulation of capsid assembly in HBV genotype B assessed as inhibition of viral replication; type: functional, Hepatitis B virus
[19] = Modulation of capsid assembly in HBV genotype F assessed as inhibition of viral replication; type: functional, Hepatitis B virus
[20] = Modulation of capsid assembly in HBV genotype G assessed as inhibition of viral replication; type: functional, Hepatitis B virus
[21] = Modulation of capsid assembly in HBV genotype A assessed as inhibition of viral replication; type: functional, Hepatitis B virus
[22] = Modulation of capsid assembly in HBV genotype E assessed as inhibition of viral replication; type: functional, Hepatitis B virus
Hepatitis B virus [23] = test: Antiviral activity against HBV infected in human HepG2.2.15 cells assessed as reduction in cccDNA transcription; type: functional, organism-based
Hepatitis B virus [24] = test: Antiviral activity against HBV infected in human HepG2.2.15 cells assessed as inhibition of viral replication; type: functional, organism-based
Hepatitis B virus [25] = test: Antiviral activity against HBV infected in human HePAD38 cells assessed as inhibition of viral replication; type: functional, organism-based
Hepatitis B virus [26] = test: Antiviral activity against HBV infected in human HepDE19 cells assessed as inhibition of viral replication; type: functional, organism-based
Hepatitis B virus [27] = test: Antiviral activity against HBV infected in human HepG2-hNTCP cells assessed as reduction in HBeAg level; type: functional, organism-based
Hepatitis B virus [28] = test: Antiviral activity against HBV infected in human Primary hepatocyte cells assessed as reduction in HBsAg level; type: functional, organism-based
Hepatitis B virus [29] = test: Antiviral activity against HBV infected in human HepG2-hNTCP cells assessed as reduction in pgRNA level; type: functional, organism-based
Hepatitis B virus [30] = test: Antiviral activity against HBV infected in human HepG2.2.15 cells assessed as reduction in viral DNA level; type: functional, organism-based
Hepatitis B virus [31] = test: Antiviral activity against HBV infected in human HepG2-hNTCP cells assessed as reduction in HBsAg level; type: functional, organism-based
Hepatitis B virus [32] = test: Antiviral activity against HBV infected in human Primary hepatocyte cells assessed as reduction in HBeAg level; type: functional, organism-based
Hepatitis B virus [33] = test: Antiviral activity against HBV infected in human Primary hepatocyte cells assessed as reduction in pgRNA level; type: functional, organism-based

- EC50 (Hepatitis B virus [2]): 90500 nM
Compound: O=C(/C=C/c1ccc(O)c(O)c1)O[C@@H]1C[C@](O)(C(=O)O)C[C@@H](OC(=O)/C=C/c2ccc(O)c(O)c2)[C@H]1O
- inhibition at 100 µg/mL (Hepatitis B virus [1]): 73%
- inhibition at 100 µg/mL (Hepatitis B virus [3]): 81%

- EC50 (Hepatitis B virus [2]): 31900 nM
Compound: O=C(/C=C/c1ccc(O)c(O)c1)O[C@@H]1[C@H](O)C[C@@](O)(C(=O)O)C[C@H]1OC(=O)/C=C/c1ccc(O)c(O)c1
- inhibition at 100 µg/mL (Hepatitis B virus [1]): 81%
- inhibition at 100 µg/mL (Hepatitis B virus [3]): 90%

- EC50 (Hepatitis B virus [4]): 290 nM
- EC50 (Hepatitis B virus [5]): 57 nM
Compound: CC(=O)c1cc(O)c(=O)c(O)cc1C

- EC50 (Hepatitis B virus [6]): 3000 nM
Compound: Cc1nc2cc(NC(=O)c3ccc(S(=O)(=O)N(C)Cc4ccccc4)cc3)ccc2s1

- EC50 (Hepatitis B virus [6]): 10000 nM
Compound: O=C(CN(c1cc(C(F)(F)F)ccc1Cl)S(=O)(=O)c1ccccc1)NCc1ccncc1

Compound: CCOC(=O)C1=C(CN2CCOCC2)NC(c2nccs2)=N[C@H]1c1ccc(F)cc1Br
- EC50 (Hepatitis B virus [7]): 1 nM
- EC50 (Hepatitis B virus [8]): 10 nM

- EC50 (Hepatitis B virus [9]): 540 nM
Compound: C/C(=N\OCc1ccccc1)c1c(C)cc(=O)n(O)c1O

- EC50 (Hepatitis B virus [10]): 8900 nM
- EC50 (Hepatitis B virus [11]): 8900 nM
Compound: C=C(C)[C@@H]1CC[C@]2(C(=O)OC)CC[C@]3(COC(=O)c4ccccc4)[C@H](CC[C@@H]4[C@@]5(C)CC[C@H](OC(C)=O)C(C)(C)[C@@H]5CC[C@]43C)[C@H]12

- EC50 (Hepatitis B virus [9]): 260 nM
- EC50 (Hepatitis B virus [12]): 400 nM
Compound: COc1ccc(CO/N=C(\C)c2c(C)cc(=O)n(O)c2O)cc1

- EC50 (Hepatitis B virus [9]): 110 nM
- EC50 (Hepatitis B virus [12]): 100 nM
Compound: C/C(=N\OCc1ccc(F)cc1)c1c(C)cc(=O)n(O)c1O

- EC50 (Hepatitis B virus [9]): 460 nM
Compound: C/C(=N\OCc1ccc(C)cc1)c1c(C)cc(=O)n(O)c1O

- EC50 (Hepatitis B virus [9]): 500 nM
Compound: COc1ccccc1CO/N=C(\C)c1c(C)cc(=O)n(O)c1O

- EC50 (Hepatitis B virus [9]): 320 nM
- EC50 (Hepatitis B virus [12]): 330 nM
Compound: C/C(=N\OCc1ccccc1F)c1c(C)cc(=O)n(O)c1O

- EC50 (Hepatitis B virus [13]): 3 nM
Compound: Cc1c(C(=O)C(=O)NCC#N)c(C)n(C)c1C(=O)Nc1ccc(F)c(F)c1

- EC50 (Hepatitis B virus [4]): 1500 nM
- EC50 (Hepatitis B virus [5]): 78 nM
Compound: Cc1c(O)c2cc(Br)cnc2n(O)c1=O

- EC50 (Hepatitis B virus [14]): 20 nM
Compound: CN[C@@H](C)C(=O)N[C@H]1CN(S(=O)(=O)c2cccc(S(=O)(=O)N3CC[C@H]4CC[C@@H](C(=O)NC(c5ccccc5)c5ccccc5)N4C(=O)[C@@H](NC(=O)[C@H](C)NC)C3)c2)CC[C@H]2CC[C@@H](C(=O)NC(c3ccccc3)c3ccccc3)N2C1=O

Compound: C[C@H](NS(=O)(=O)c1cc(C(=O)Nc2ccc(F)c(C#N)c2)n(C)c1)C(F)(F)F [BERSACAPAVIR]
- EC50 [15]: 10 nM
- EC50 [16]: 10 nM
- EC50 [17]: 17 nM
- EC50 [18]: 10 nM
- EC50 [19]: 10 nM
- EC50 [20]: 10 nM
- EC50 [21]: 10 nM
- EC50 [22]: 10 nM

- EC50 (Hepatitis B virus [23]): 160 nM
Compound: O=C1OCc2c1cc1ccc3c(c1c2-c1ccc2c(c1)OCO2)OCO3 [HELIOXANTHIN]

- EC50 (Hepatitis B virus [24]): 17 nM
- EC50 (Hepatitis B virus [25]): 18 nM
- EC50 (Hepatitis B virus [26]): 27 nM
Compound: CCOC(=O)C1=C(CN2CCN3C(=O)N(CC(C)(C)C(=O)O)C[C@@H]3C2)N=C(c2nccs2)N[C@H]1c1cccc(F)c1C [LINVENCORVIR]

- EC50 (Hepatitis B virus [27]): 1840 nM
- EC50 (Hepatitis B virus [29]): 1840 nM
- EC50 (Hepatitis B virus [30]): 173 nM
- EC50 (Hepatitis B virus [31]): 1840 nM
Compound: O=C(NCc1cnc(C(F)(F)F)s1)c1ccc2c(c1)NC(=O)c1ccccc1S2(=O)=O [VEBICORVIR]
- EC50 (Hepatitis B virus [28]): 1840 nM
- EC50 (Hepatitis B virus [32]): 1840 nM
- EC50 (Hepatitis B virus [33]): 1840 nM
